Data on 25 compounds can be found in patent US20250051362A1, “SUBSTITUTED FUSED HETEROCYCLIC COMPOUND, AND PREPARATION METHOD THEREFOR AND USE THEREOF” (Shanghai Annova Biotechnology Co., Ltd., priority 2021, published 2025).

In experiment [1] the test system is human colon cancer LoVo cells. The experiment can be described thus: Cell proliferation inhibition assay (CellTiter-Glo). Format: cell-based. The conditions noted are these: for IC50 / Emax / Max Inhibition: LoVo cells, 96 hours incubation; for Emax: Homo sapiens, read-out: Max Inhibition; for LoVo IC50 value (ratio to Example Compound 1): LoVo IC50 of comparative compound divided by that of Example Compound 1 (0.66 μM). The source says:
Experimental method: A CellTiter-Glo cell viability assay kit was used to test the inhibitory effect of the compounds on the in vitro proliferation of human colon cancer LoVo cells.
Experimental materials: LoVo cells (ATCC, Cat. No. CCL-29); F-12K medium (Invitrogen, Cat. No. 21127-022); fetal bovine serum (Biological Industries, Cat. No. 04-002-1A); GlutaMAX (Gibco, Cat. No. 35050-061); 0.25% trypsin-EDTA (Invitrogen, Cat. No. 25200-072); CellTiter-Glo kit (Promega, Cat. No. G7558).
Experimental procedure: (1) F-12K medium, fetal bovine serum and GlutaMAX were formulated into a complete medium for culturing LoVo cells; (2) well-grown LoVo cells were taken, digested with trypsin and transferred to a centrifuge tube, and centrifuged; the supernatant was discarded, and cells were resuspended by adding a fresh medium and counted by a Vi-CELL XR cell counter; the density of the cell suspension was adjusted to 25,000 to 30,000 cells/mL, and the cell suspension was added at 100 μL/well in a 96-well cell culture plate, while a blank control group was set up with no cells added, and the cell culture plate was incubated in a carbon dioxide incubator overnight; (3) a DMSO solution of the compound to be tested was dispensed into the above 96-well cell culture plate using an HP D300 ultra-micro sampler, with 0.5 μL of the solution per well and 10 concentrations for each compound (3× dilution), while a DMSO control group with no compound added was set up, and the plate was continued to be incubated in a carbon dioxide incubator for 96 hours; (4) the cell culture plate was taken out and equilibrated to room temperature, with 100 μL of a CellTiter-Glo reagent added to each well, and then the plate was kept away from light, shaken for 10 minutes and then incubated for 10 minutes; (5) the cell culture plate was put into EnSpire for plate reading, and the luminescence value RLU was recorded.
Data processing: (1) The inhibition rate was calculated from the luminescence values: “RLUDMSO” is the luminescence value of the DMSO control group without compound, “RLUblank” is the luminescence value of the blank control group without cells, and “RLUcompound” is the luminescence value of the compound test group, and the inhibition rate=[1−(RLUcompound−RLUblank)/(RLUDMSO−RLUblank)]×100%; (2) with curve fitting using the Excel add-on XLFit, the IC50 value was calculated.

The target of the next experiment is ATR kinase (Homo sapiens (Human), UniProt Q13535). As to the kind of experiment: In vitro ATR kinase inhibition assay (Mobility Shift Assay, Caliper EZ Reader). Format: biochemical. Conditions: for IC50: ATP concentration of Km, 4 h at 28° C.; for ATR IC50 value (ratio to Example Compound 1): ATR IC50 of comparative compound divided by that of Example Compound 1 (5.5 nM). On the procedure:
Experimental method: The inhibitory activity of the compounds on ATR kinase in vitro was determined by Mobility Shift Assay at an ATP concentration of Km using Caliper EZ Reader as a mobility shift assaying technology based on microfluidic chip technology.
Experimental procedure: (1) The compounds to be tested were dissolved in DMSO and serially diluted 4× for a total of 10 concentrations; (2) 0.06 μL of the compounds at different concentrations were pipetted into a 384-well plate using an Echo pipetting system; (3) a 2× kinase solution with a concentration of 10 nM ATR kinase was prepared from the ATR kinase and the 1× kinase buffer; and a 2× substrate solution with a concentration of 6 μM 5-FAM-AK-17 and 4 μM ATP was prepared from 5-FAM-AK-17, ATP and the 1× kinase buffer; (4) 10 μL of the 2× kinase solution was added into the 384-well plate and incubated for 10 min at room temperature; 10 μL of the 2× substrate solution was then added and incubated for 4 h at 28° C.; (5) 30 μL of the termination buffer was added to terminate the reaction, and then the 384-well plate was put into the Caliper EZ Reader to read the conversion rate data.

Each structure is given as a SMILES string.

Chain of ATR kinase (Q13535 whole entry): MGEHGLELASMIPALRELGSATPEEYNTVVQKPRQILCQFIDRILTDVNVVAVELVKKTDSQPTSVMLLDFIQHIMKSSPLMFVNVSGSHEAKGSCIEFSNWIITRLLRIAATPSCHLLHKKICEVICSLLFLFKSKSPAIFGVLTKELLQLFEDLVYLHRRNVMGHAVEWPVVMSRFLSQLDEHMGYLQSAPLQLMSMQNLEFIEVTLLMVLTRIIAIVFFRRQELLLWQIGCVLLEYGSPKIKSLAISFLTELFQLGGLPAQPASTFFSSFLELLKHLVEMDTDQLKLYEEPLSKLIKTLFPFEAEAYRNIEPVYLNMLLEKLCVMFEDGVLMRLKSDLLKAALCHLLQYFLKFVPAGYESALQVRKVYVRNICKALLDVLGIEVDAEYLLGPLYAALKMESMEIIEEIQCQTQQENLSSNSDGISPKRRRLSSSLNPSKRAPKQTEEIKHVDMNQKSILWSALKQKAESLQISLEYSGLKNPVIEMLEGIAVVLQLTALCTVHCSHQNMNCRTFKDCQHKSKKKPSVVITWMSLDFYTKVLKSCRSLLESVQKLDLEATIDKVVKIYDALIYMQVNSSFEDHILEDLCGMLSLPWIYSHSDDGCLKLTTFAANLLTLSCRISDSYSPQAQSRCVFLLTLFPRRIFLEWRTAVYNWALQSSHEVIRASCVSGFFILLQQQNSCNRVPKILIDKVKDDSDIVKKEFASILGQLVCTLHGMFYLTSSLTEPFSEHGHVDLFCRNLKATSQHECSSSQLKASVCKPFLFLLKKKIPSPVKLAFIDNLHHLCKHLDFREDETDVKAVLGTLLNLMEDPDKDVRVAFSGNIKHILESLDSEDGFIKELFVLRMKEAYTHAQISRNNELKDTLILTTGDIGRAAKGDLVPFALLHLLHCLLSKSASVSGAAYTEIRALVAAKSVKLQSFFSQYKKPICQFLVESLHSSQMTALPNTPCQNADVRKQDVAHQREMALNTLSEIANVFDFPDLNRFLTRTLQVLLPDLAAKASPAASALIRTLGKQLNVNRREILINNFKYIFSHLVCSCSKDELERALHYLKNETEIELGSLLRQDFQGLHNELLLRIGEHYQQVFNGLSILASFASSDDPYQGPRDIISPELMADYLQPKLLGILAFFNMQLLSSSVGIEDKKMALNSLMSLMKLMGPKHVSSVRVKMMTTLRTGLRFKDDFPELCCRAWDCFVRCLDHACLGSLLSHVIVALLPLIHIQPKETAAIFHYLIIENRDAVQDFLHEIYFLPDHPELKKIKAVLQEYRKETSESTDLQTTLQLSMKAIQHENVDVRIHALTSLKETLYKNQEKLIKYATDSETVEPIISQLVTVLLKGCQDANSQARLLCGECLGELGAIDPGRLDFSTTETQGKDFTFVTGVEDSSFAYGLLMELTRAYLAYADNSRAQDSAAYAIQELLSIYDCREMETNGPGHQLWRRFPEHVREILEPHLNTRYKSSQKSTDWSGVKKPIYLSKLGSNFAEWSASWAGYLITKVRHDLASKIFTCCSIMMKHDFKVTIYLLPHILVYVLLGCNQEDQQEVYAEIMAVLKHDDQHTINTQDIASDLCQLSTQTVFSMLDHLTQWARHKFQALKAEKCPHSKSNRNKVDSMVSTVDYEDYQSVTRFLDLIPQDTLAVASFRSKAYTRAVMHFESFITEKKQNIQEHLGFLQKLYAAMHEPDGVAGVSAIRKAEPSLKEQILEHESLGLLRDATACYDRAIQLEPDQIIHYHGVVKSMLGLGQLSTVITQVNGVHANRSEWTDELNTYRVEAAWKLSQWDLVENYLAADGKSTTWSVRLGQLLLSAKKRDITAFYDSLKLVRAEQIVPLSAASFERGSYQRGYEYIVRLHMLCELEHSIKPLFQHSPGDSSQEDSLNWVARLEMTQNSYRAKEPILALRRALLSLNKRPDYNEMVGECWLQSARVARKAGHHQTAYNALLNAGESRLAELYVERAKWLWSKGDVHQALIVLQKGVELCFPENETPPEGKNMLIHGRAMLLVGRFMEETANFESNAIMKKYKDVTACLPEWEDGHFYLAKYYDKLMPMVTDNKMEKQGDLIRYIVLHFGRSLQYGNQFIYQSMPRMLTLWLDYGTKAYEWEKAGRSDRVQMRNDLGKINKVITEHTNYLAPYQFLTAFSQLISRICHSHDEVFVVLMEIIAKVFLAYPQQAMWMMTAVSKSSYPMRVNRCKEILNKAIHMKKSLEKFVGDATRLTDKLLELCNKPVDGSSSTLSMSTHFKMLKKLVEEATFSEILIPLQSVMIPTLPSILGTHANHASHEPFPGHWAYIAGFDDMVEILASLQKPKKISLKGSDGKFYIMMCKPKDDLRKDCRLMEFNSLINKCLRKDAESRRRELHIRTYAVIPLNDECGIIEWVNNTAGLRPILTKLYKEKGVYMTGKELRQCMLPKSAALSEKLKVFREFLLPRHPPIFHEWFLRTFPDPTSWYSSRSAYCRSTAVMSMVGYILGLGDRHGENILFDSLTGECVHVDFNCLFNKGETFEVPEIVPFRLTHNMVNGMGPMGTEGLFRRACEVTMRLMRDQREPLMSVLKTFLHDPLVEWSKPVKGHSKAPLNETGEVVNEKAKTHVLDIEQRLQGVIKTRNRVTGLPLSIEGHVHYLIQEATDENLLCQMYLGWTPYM
Chain of ATR kinase (Q8WXE1 whole entry partner): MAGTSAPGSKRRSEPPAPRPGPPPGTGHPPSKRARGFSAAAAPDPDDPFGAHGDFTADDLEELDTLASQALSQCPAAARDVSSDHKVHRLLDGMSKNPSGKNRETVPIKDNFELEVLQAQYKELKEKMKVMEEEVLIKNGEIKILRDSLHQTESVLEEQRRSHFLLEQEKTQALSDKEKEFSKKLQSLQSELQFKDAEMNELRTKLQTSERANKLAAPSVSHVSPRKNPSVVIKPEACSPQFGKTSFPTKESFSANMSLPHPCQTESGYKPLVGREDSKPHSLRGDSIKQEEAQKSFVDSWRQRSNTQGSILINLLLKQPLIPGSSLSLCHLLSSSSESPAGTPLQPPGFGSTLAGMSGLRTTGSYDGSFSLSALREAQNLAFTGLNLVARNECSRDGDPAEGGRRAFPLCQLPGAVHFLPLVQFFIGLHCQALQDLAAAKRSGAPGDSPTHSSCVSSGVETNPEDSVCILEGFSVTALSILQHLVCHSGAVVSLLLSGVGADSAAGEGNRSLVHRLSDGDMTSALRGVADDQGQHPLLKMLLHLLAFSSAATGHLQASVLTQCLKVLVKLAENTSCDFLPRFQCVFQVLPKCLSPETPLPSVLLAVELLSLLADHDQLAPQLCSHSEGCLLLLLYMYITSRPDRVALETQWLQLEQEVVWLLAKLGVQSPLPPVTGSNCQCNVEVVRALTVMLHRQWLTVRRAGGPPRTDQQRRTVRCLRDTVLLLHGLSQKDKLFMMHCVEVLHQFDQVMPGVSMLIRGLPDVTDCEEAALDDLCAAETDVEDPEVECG

As to `C[C@@H]1COCCN1c1cc(-c2ccnc3[nH]ccc23)nc2c1ccn2S(C)(=O)=O` [Compound 1, (R)-3-methyl-4-(1′-(methylsulfonyl)-1H,1′H-[4,6′-dipyrrolo[2,3-b]pyridin]-4′-yl)morpholine], the IC50 in experiment [1] amounted to 660 nM; at ATR kinase it was 5.5 nM.

For `C[C@@H]1COCCN1c1cc(-c2cccc3[nH]ccc23)nc2c1ccn2S(C)(=O)=O` [Compound 2, (R)-4-(6-(1H-indol-4-yl)-1-(methylsulfonyl)-1H-pyrrolo[2,3-b]pyridin-4-yl)-3-methylmorpholine], the Emax in experiment [1] was determined as 94%. The IC50 at ATR kinase stood at 4.2 nM.

As to `C[C@@H]1COCCN1c1cc(-c2ccnc3[nH]ccc23)nc2c1ccn2C` [Compound 2′, reference compound], on ATR kinase, the IC50 turned out to be 63 nM.

As for `C[C@@H]1COCCN1c1cc(-c2cncc3[nH]ccc23)nc2c1ccn2S(C)(=O)=O` [Compound 3, (R)-3-methyl-4-(1-(methylsulfonyl)-6-(1H-pyrrolo[2,3-c]pyridin-4-yl)-1H-pyrrolo[2,3-b]pyridin-4-yl)morpholine], in experiment [1], the Emax came to 93%. Besides, the IC50 on ATR kinase amounted to 10 nM.

`C[C@@H]1COCCN1c1nc(-c2cncc3[nH]ccc23)nc2c1ccn2C` [Compound 3′, reference compound]: the 50% inhibitory concentration (IC50) on ATR kinase is 31 nM.

Consider `C[C@@H]1COCCN1c1cc(-c2cnc3[nH]ccc3c2)nc2c1ccn2S(C)(=O)=O` [Compound 4, (R)-3-methyl-4-(1′-(methylsulfonyl)-1H,1′H-[5,6′-dipyrrolo[2,3-b]pyridin]-4′-yl)morpholine], for which the IC50 on ATR kinase was 208 nM.

For the compound `C[C@@H]1COCCN1c1cc(-c2ccnc3[nH]ccc23)nc2c1ccn2CS(C)(=O)=O` [Compound 4′, reference compound], the “LoVo IC50 value (ratio to Example Compound 1)” value in experiment [1] is 2.34/0.66 = 3.55. Further, on ATR kinase, the half-maximal inhibitory concentration (IC50) came out at 20 nM and the “ATR IC50 value (ratio to Example Compound 1)” value is on record as 20/5.5 = 3.64.

As for `C[C@@H]1COCCN1c1cc(-c2c[nH]c3ncccc23)nc2c1ccn2S(C)(=O)=O` [Compound 5, (R)-3-methyl-4-(1′-(methylsulfonyl)-1H,1′H-[3,6′-dipyrrolo[2,3-b]pyridin]-4′-yl)morpholine], the IC50 on ATR kinase was determined as 534 nM.

With `CC(n1ccc2c(N3CCOC[C@H]3C)cc(-c3ccnc4[nH]ccc34)nc21)S(C)(=O)=O` (stereo partly drawn) [Compound 5′, reference compound], the “LoVo IC50 value (ratio to Example Compound 1)” value in experiment [1] is 1.88/0.66 = 2.85. Also, at ATR kinase, the half-inhibitory concentration (IC50) was found to be 15 nM and the “ATR IC50 value (ratio to Example Compound 1)” value is listed as 15/5.5 = 2.73.

As for `Cc1c[nH]c2nccc(-c3cc(N4CCOC[C@H]4C)c4ccn(S(C)(=O)=O)c4n3)c12` [Compound 6, (R)-3-methyl-4-(3-methyl-1′-(methylsulfonyl)-1H,1′H-[4,6′-dipyrrolo[2,3-b]pyridin]-4′-yl)morpholine], on ATR kinase, the IC50 was determined as 188 nM.

Turning to `C[C@@H]1COCCN1c1cc(-c2ccnc3[nH]ccc23)c2ccn(S(C)(=O)=O)c2n1` [Compound 6′, reference compound], the IC50 on ATR kinase was 268 nM.

For `C[C@@H]1COCCN1c1cc(-c2cc(F)cc3[nH]ccc23)nc2c1ccn2S(C)(=O)=O` [Compound 7, (R)-4-(6-(6-fluoro-1H-indol-4-yl)-1-(methylsulfonyl)-1H-pyrrolo[2,3-b]pyridin-4-yl)-3-methylmorpholine], the Emax in experiment [1] stood at 95%. Moreover, the concentration for half-maximal inhibition (IC50) at ATR kinase worked out at 3.2 nM.

As to `CC(n1cnc2c(N3CCOC[C@H]3C)nc(-c3cncc4[nH]ccc34)cc21)S(C)(=O)=O` (stereo partly drawn) [Compound 7′, reference compound], the IC50 at ATR kinase amounted to 28 nM.

In the case of `C[C@@H]1COCCN1c1cc(-c2ccc(F)c3[nH]ccc23)nc2c1ccn2S(C)(=O)=O` [Compound 8, (R)-4-(6-(7-fluoro-1H-indol-4-yl)-1-(methylsulfonyl)-1H-pyrrolo[2,3-b]pyridin-4-yl)-3-methylmorpholine], on ATR kinase, the half-maximal inhibitory concentration (IC50) came to 78 nM.

Regarding `C[C@@H]1COCCN1c1cc(-c2ccn[nH]2)nc2c1ccn2S(C)(=O)=O` [Compound 9, (R)-3-methyl-4-(1-(methylsulfonyl)-6-(1H-pyrazol-5-yl)-1H-pyrrolo[2,3-b]pyridin-4-yl)morpholine], at ATR kinase, the half-inhibitory concentration (IC50) turned out to be 311 nM.

Take `C[C@@H]1COCCN1c1cc(-c2cn[nH]c2)nc2c1ccn2S(C)(=O)=O` [Compound 10, (R)-3-methyl-4-(1-(methylsulfonyl)-6-(1H-pyrazol-4-yl)-1H-pyrrolo[2,3-b]pyridin-4-yl)morpholine]: the IC50 on ATR kinase was found to be 843 nM.

With `C[C@@H]1COCCN1c1cc(-c2nc3ccccc3[nH]2)nc2c1ccn2S(C)(=O)=O` [Compound 11, (R)-4-(6-(1H-benzo[d]imidazol-2-yl)-1-(methylsulfonyl)-1H-pyrrolo[2,3-b]pyridin-4-yl)-3-methylmorpholine], the half-inhibitory concentration (IC50) at ATR kinase was 823 nM.

As for `C[C@@H]1COCCN1c1cc(-c2ncnc3[nH]ccc23)nc2c1ccn2S(C)(=O)=O` [Compound 12, (R)-3-methyl-4-(1-(methylsulfonyl)-6-(7H-pyrrolo[2,3-d]pyrimidin-4-yl)-1H-pyrrolo[2,3-b]pyridin-4-yl)-morpholine], at ATR kinase, the half-maximal inhibitory concentration (IC50) was 130 nM.

On to `C[C@@H]1COCCN1c1cc(-c2ccnc3[nH]cnc23)nc2c1ccn2S(C)(=O)=O` [Compound 13, (R)-4-(6-(3H-imidazo[4,5-b]pyridin-7-yl)-1-(methylsulfonyl)-1H-pyrrolo[2,3-b]pyridin-4-yl)-3-methylmorpholine], for which the IC50 on ATR kinase is 196 nM.

For the compound `CC(C)S(=O)(=O)n1ccc2c(N3CCOC[C@H]3C)cc(-c3ccnc4[nH]ccc34)nc21` [Compound 14, (R)-4-(1′-(isopropylsulfonyl)-1H,1′H-[4,6′-dipyrrolo[2,3-b]pyridin]-4′-yl)-3-methylmorpholine], in experiment [1], half-maximal inhibition (IC50) required 2130 nM and the “Max Inhibition” value is given as 93%. The IC50 at ATR kinase is 35 nM.

Regarding `C[C@@H]1COCCN1c1cc(-c2ccnc3[nH]ccc23)nc2c1ccn2S(=O)(=O)C1CC1` [Compound 15, (R)-4-(1′-(cyclopropylsulfonyl)-1H,1′H-[4,6′-dipyrrolo[2,3-b]pyridin]-4′-yl)-3-methylmorpholine], the IC50 was 1270 nM in experiment [1] and 12 nM on ATR kinase. The “Max Inhibition” value in experiment [1] is given as 94%.

As to `C[C@@H]1COCCN1c1cc(-c2ccnc3[nH]ccc23)nc2c1ccn2S(=O)(=O)N(C)C` [Compound 16, (R)-N,N-dimethyl-4′-(3-methylmorpholinyl)-1H,1′H-[4,6′-dipyrrolo[2,3-b]pyridine]-1′-sulfamide], the IC50 was found to be 1820 nM in experiment [1] and 17 nM at ATR kinase. For the same compound, the “Max Inhibition” value in experiment [1] came to 93%.

Consider `C[C@@H]1COCCN1c1nc(-c2ccnc3[nH]ccc23)nc2c1ccn2S(C)(=O)=O` [Compound 17, (R)-3-methyl-4-(7-(methylsulfonyl)-2-(1H-pyrrolo[2,3-b]pyridin-4-yl)-7H-pyrrolo[2,3-d]pyrimidin-4-yl)morpholine], for which, in experiment [1], the Emax was 93%. For the same compound, the half-maximal inhibitory concentration (IC50) on ATR kinase is 1.6 nM.

As for `C[C@@H]1COCCN1c1nc(-c2cccc3[nH]ccc23)nc2c1ccn2S(C)(=O)=O` [Compound 18, (R)-4-(2-(1H-indol-4-yl)-7-(methylsulfonyl)-7H-pyrrolo[2,3-d]pyrimidin-4-yl)-3-methylmorpholine], the Emax in experiment [1] was determined as 92%. The IC50 on ATR kinase stood at 2.3 nM.

For `C[C@@H]1COCCN1c1nc(-c2cncc3[nH]ccc23)nc2c1ccn2S(C)(=O)=O` [Compound 19, (R)-3-methyl-4-(7-(methylsulfonyl)-2-(1H-pyrrolo[2,3-c]pyridin-4-yl)-7H-pyrrolo[2,3-d]pyrimidin-4-yl)morpholine], the Emax in experiment [1] was determined as 90%. Besides, the IC50 at ATR kinase worked out at 1.6 nM.
